We go through 24 compounds from patent publication US12516046B2, “2-oxo-oxazolidine-5-carboxamides as NAV1.8 inhibitors” (Merck Sharp & Dohme LLC, priority 2020, dated 2026).

human Nav1.8, sequence (Q9Y5Y9 whole entry): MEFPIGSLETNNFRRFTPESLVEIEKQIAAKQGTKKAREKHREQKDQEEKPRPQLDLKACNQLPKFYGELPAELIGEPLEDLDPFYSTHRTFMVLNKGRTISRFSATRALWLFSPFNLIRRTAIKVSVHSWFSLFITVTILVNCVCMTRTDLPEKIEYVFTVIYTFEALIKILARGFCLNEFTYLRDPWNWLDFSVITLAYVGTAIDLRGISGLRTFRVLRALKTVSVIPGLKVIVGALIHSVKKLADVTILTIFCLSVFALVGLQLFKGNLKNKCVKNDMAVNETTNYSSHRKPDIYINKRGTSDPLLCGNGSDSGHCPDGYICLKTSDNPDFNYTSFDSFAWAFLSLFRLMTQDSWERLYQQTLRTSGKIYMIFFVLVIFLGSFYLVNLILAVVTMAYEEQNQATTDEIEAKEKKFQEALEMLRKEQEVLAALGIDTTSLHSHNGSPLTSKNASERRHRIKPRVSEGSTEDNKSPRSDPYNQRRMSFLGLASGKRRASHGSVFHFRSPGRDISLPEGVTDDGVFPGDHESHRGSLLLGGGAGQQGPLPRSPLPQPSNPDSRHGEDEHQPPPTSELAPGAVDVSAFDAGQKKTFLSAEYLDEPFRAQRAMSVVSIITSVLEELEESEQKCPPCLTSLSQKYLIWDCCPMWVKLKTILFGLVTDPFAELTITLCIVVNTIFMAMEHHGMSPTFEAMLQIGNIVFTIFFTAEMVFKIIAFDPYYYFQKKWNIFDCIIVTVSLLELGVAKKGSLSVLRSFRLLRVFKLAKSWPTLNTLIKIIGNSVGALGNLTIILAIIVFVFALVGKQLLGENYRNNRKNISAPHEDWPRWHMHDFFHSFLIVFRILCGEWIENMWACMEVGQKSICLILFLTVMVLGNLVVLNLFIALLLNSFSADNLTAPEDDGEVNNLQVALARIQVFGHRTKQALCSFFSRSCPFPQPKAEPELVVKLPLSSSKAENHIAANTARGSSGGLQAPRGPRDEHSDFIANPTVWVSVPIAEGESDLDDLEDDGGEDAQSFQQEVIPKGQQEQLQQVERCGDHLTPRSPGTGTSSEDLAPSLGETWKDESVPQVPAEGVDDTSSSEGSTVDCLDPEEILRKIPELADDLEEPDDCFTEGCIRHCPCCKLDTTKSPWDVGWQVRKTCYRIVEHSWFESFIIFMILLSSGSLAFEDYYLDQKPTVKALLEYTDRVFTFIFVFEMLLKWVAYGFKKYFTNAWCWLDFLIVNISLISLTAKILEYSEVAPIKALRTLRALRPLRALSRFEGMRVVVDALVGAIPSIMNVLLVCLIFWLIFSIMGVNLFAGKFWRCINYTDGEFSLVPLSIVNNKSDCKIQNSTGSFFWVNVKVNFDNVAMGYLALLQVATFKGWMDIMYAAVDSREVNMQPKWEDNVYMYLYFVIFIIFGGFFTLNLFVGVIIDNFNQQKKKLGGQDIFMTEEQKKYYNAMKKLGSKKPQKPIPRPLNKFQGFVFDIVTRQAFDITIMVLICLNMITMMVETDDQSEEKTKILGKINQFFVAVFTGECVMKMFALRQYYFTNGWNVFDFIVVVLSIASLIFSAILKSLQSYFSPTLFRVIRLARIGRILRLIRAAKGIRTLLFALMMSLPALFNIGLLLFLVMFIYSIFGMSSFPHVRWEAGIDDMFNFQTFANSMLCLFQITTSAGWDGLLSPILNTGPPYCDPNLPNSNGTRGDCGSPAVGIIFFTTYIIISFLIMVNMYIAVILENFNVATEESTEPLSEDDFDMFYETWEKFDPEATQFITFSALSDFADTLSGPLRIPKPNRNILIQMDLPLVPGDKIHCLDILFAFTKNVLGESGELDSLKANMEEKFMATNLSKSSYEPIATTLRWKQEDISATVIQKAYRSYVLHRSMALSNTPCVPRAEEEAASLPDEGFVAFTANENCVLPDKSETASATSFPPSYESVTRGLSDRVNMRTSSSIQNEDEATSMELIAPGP

This test concerns the target human Nav1.8 (Homo sapiens (Human), UniProt Q9Y5Y9). Put plainly: Nav1.8 Qube® Assay (automated 384-well patch-clamp). The test is classed as cell-based. The note with it: human Nav1.8 channels stably expressed in HEK 293 cells. From the text:
Qube® Assay Experimental Procedure
For orientation: In patch-clamp work, channel activity is measured electrically.
For the compound `O=C1NC[C@@H](C(=O)NC(c2ccc(F)c(Cl)c2)c2cc(C(F)(F)F)[nH]n2)O1` (single isomer, unassigned) [Example 5B, (S)—N—((R or S)-(3-chloro-4-fluorophenyl)(5-(trifluoromethyl)-1H-pyrazol-3-yl)methyl)-2-oxooxazolidine-5-carboxamide], the IC50 turned out to be 265 nM.

Turning to `O=C1NC[C@@H](C(=O)NC(c2ccc(OC(F)F)cc2)c2ccc(F)c(Cl)c2)O1` (single isomer, unassigned) [Example 48B, (S)-N-((R or S)-(3-chloro-4-fluorophenyl)(4-(difluoromethoxy)phenyl)methyl)-2-oxooxazolidine-5-carboxamide], the IC50 was found to be 6.8 nM.

With `O=C1NC[C@@H](C(=O)NC(COc2ccc(F)c(Cl)c2)c2ccc(F)c(Cl)c2)O1` (single isomer, unassigned) [Example 8B, (S)—N—((R or S)-2-(3-chloro-4-fluorophenoxy)-1-(3-chloro-4-fluorophenyl)ethyl)-2-oxooxazolidine-5-carboxamide], the IC50 worked out at 4.6 nM.

As to `O=C1NC[C@@H](C(=O)NC(c2ccc(Cl)cc2)c2ccc(F)c(C(F)F)n2)O1` (single isomer, unassigned) [Example 16A], the IC50 was determined as 239 nM.

For the compound `CC(C)(C)c1csc(C(NC(=O)[C@@H]2CNC(=O)O2)c2ccc(Cl)cc2)n1` (single isomer, unassigned) [Example 39B, (S)-N-((R or S)-(4-(tert-butyl)thiazol-2-yl)(4-chlorophenyl)methyl)-2-oxooxazolidine-5-carboxamide], half-maximal inhibition (IC50) was put at 64 nM.

`N#Cc1ccc(C(NC(=O)[C@@H]2CNC(=O)O2)c2cnc(C(F)(F)F)c(Cl)c2)cc1Cl` (single isomer, unassigned) [Example 54B, (S)-N-((R or S)-(3-chloro-4-cyano-phenyl)(5-chloro-6-(trifluoromethyl)pyridin-3-yl)methyl)-2-oxooxazolidine-5-carboxamide]: 7.2 nM corresponded to half-maximal inhibition (IC50).

Consider `O=C1NC[C@@H](C(=O)NC(c2cncc(Cl)c2)c2ccc(F)c(Cl)c2)O1` (single isomer, unassigned) [Example 13B, (S)-N-((R or S)-(3-chloro-4-fluorophenyl)(5-chloropyridin-3-yl)methyl)-2-oxooxazolidine-5-carboxamide], for which the IC50 is 190 nM.

Compound `O=C1NC[C@@H](C(=O)NC(c2ccc(Cl)cc2)C23CC(C(F)(F)F)(C2)C3)O1` (single isomer, unassigned) [Example 4A, (S)-N-((R or S)-(4-chlorophenyl)(3-(trifluoromethyl)bicyclo[1.1.1]pentan-1-yl)methyl)-2-oxooxazolidine-5-carboxamide] had an IC50 of 28 nM.

Take `O=C1NC[C@@H](C(=O)NC(c2cccc(Cl)c2)C2CC2c2ccccc2)O1` (single isomer, unassigned) [Example 26A, (5S)-N-((R or S)-(3-chlorophenyl) ((cis or trans)-2-phenylcyclopropyl)methyl)-2-oxooxazolidine-5-carboxamide]: the IC50 was 326 nM.

In turn, `Cn1nc(C(NC(=O)[C@@H]2CNC(=O)O2)c2ccc(F)c(Cl)c2)cc1C(F)(F)F` (single isomer, unassigned) [Example 62A, (S)-N-((R or S)-(3-chloro-4-fluorophenyl)(1-methyl-5-(trifluoromethyl)-1H-pyrazol-3-yl)methyl)-2-oxooxazolidine-5-carboxamide] yielded an IC50 of 39 nM.

`O=C1NC[C@@H](C(=O)NC(c2ccc(F)c(Cl)c2)c2ccc(Cl)cn2)O1` (single isomer, unassigned) [Example 14A, (S)-N-((R or S)-(3-chloro-4-fluorophenyl)(5-chloropyridin-2-yl)methyl)-2-oxooxazolidine-5-carboxamide] registered an IC50 of 21 nM.

In the case of `O=C1NC[C@@H](C(=O)NC(c2ccc(OCC(F)(F)F)nc2)c2ccc(F)c(Cl)c2F)O1` (single isomer, unassigned) [Example 50B, (S)—N—((R or S)-(3-chloro-2,4-difluorophenyl)(6-(2,2,2-trifluoroethoxy)pyridin-3-yl)methyl)-2-oxooxazolidine-5-carboxamide], the midpoint of inhibition, the IC50, lay at 48 nM.

`O=C1NC[C@@H](C(=O)NC(c2ccc(Cl)cc2)c2ccc(OCC(F)(F)F)nn2)O1` (single isomer, unassigned) [Example 73A, (S)-N-((R or S)-(4-chlorophenyl)(6-(2,2,2-trifluoroethoxy)pyridazin-3-yl)methyl)-2-oxooxazolidine-5-carboxamide] gave an IC50 of 964 nM.

For `O=C1NC[C@@H](C(=O)NC(c2ccc(OC(F)(F)F)c(Cl)c2)c2ccnc(C(F)(F)F)n2)O1` (single isomer, unassigned) [Example 52A, (S)-N-((R or S)-(3-chloro-4-(trifluoromethoxy)phenyl)(2-(trifluoro-methyl)pyrimidin-4-yl)methyl)-2-oxooxazolidine-5-carboxamide], 7.9 nM corresponded to half-maximal inhibition (IC50).

The compound `Cc1cc(C(NC(=O)[C@@H]2CNC(=O)O2)c2ccc(Cl)cc2)ccc1Cl` (single isomer, unassigned) [Example 46A, (S)-N-((R or S)-(4-chloro-3-methylphenyl)(4-chlorophenyl)methyl)-2-oxooxazolidine-5-carboxamide] displayed an IC50 of 0.6 nM.

For the compound `O=C1NC[C@@H](C(=O)NC(c2ccc(Cl)cc2)c2ccc(OCC(F)(F)F)nn2)O1` (single isomer, unassigned) [Example 73B, (S)-N-((R or S)-(4-chlorophenyl)(6-(2,2,2-trifluoroethoxy)pyridazin-3-yl)methyl)-2-oxooxazolidine-5-carboxamide], the midpoint of inhibition, the IC50, lay at 80 nM.

For the compound `O=C1NC[C@@H](C(=O)NC(c2ccc(OC(F)(F)F)c(Cl)c2)c2coc(C(F)(F)F)n2)O1` (single isomer, unassigned) [Example 51A, (S)-N-((R or S)-(3-chloro-4-(trifluoro-methoxy)phenyl)(2-(trifluoromethyl)oxazol-4-yl)methyl)-2-oxooxazolidine-5-carboxamide], the IC50 turned out to be 5.3 nM.

For `COc1cc(Cl)ccc1C(NC(=O)[C@@H]1CNC(=O)O1)c1ccc(F)cc1` (single isomer, unassigned) [Example 55A, (S)—N—((R or S)-(4-chloro-2-methoxyphenyl)(4-fluorophenyl)-methyl)-2-oxooxazolidine-5-carboxamide], the IC50 turned out to be 19 nM.

For `O=C1NC[C@@H](C(=O)NC(c2ccc(Cl)cc2)c2cccc(F)c2F)O1` (single isomer, unassigned) [Example 29A, (S)-N-((R or S)-(4-chlorophenyl)(2,3-difluorophenyl)methyl)-2-oxooxazolidine-5-carboxamide], it took 14 nM to reach half-maximal inhibition (IC50).

The compound `O=C1NC[C@@H](C(=O)NC(c2ccc(Cl)cc2)c2ccc(F)cn2)O1` (single isomer, unassigned) [Example 23A, (S)-N-((R or S)-(4-chlorophenyl)(5-fluoropyridin-2-yl)methyl)-2-oxooxazolidine-5-carboxamide] registered an IC50 of 1350 nM.

`O=C1NC[C@@H](C(=O)NC(c2ccc(F)c(Cl)c2)c2csc(C(F)(F)F)n2)O1` (single isomer, unassigned) [Example 44B, (S)—N—((R or S)-(3-chloro-4-fluorophenyl)(2-(trifluoro-methyl)thiazol-4-yl)methyl)-2-oxooxazolidine-5-carboxamide]: the midpoint of inhibition, the IC50, lay at 17 nM.

As for `O=C1NC[C@@H](C(=O)NC(c2ccc(Cl)cc2)c2ccnc(C(F)(F)F)n2)O1` (single isomer, unassigned) [Example 11A, (S)-N-((R or S)-(4-chlorophenyl)(2-(trifluoromethyl)pyrimidin-4-yl)methyl)-2-oxooxazolidine-5-carboxamide], the IC50 amounted to 23 nM.

`O=C1NC[C@@H](C(=O)NC(c2ccc(Cl)cc2)c2cccc(F)c2F)O1` (single isomer, unassigned) [Example 29B, (S)-N-((R or S)-(4-chlorophenyl)(2,3-difluorophenyl)methyl)-2-oxooxazolidine-5-carboxamide] came in with an IC50 of 74 nM.

In turn, `O=C1NC[C@@H](C(=O)NC(c2ccc(F)c(Cl)c2)c2ccc(F)c(Cl)c2)O1` [Example 10, (S)-N-(bis(3-chloro-4-fluorophenyl)methyl)-2-oxooxazolidine-5-carboxamide] gave an IC50 of 0.7 nM.

As usually defined, the IC50 is the concentration that inhibits the measured activity by half.
